Assay results: US7618656B2, “Method for use of lanthanum carbonate pharmaceutical compositions” (Shire International Licensing B.V., priority 2006, dated 2009)

Assay: Attempted conversion of polymorph (II) to polymorph (I) by heating in water
Type: physicochemical
Settings: 18 days at 90-100° C.
Excerpt: An attempt was made to convert polymorph (II) to polymorph (I) by heating in water for an extended period of time.

conversion of polymorph (II) to polymorph (I) (polymorph stability): No evidence of conversion
Compound: O=C([O-])[O-].[La+3].[OH-] [polymorph (II), lanthanum hydroxycarbonate]
